Test results from US8642657B2 (Gruenenthal GmbH, priority 2003, dated 2014).

Legend:
rat VR1 [1] = target: T1, rat VR1 (Rattus norvegicus, UniProt O35433); assay: 45Ca2+-uptake assay in CHO/VR1 cells, antagonism of capsaicin-stimulated uptake; type: cell-based; settings: 45Ca2+ uptake stimulated by 50 nM capsaicin
T1 construct: expressed in transfected cells
Method: (§1) Initial stocks were dissolved in DMSO. For the binding assays, compounds were diluted in with DPBS with Ca^2+ and Mg^2+ and 0.25 mg/mL bovine serum albumin. For the calcium uptake assays, compounds were diluted in DMEM with 0.25 mg/mL bovine serum albumin.
Molecules were characterized to determine whether they were full agonists, partial agonists, or antagonists. For studies of ^45Ca^2+ uptake by CHO/VR1 cells (Tet-off cells), the cells were plated in 24-well plates to yield a cell density 20-40% of that required to produce confluence. The next day the medium was changed to remove the tetracycline and induce VR1 expression. Experiments were performed approximately 36-40 hours after induction. For ^45Ca^2+ uptake assay, cells were incubated for 5 min at 37° C. in a total volume of 400 μL of serum free DMEM (containing 1.8 mM CaCl2) in the presence of 0.25 mg/mL BSA (Sigma), 1 μCi/mL ^45Ca^2+ (5-30 Ci/g from ICN, CA), and increasing concentrations of the compound to be tested. Immediately after the incubation, extracellular ^45Ca^2+ was removed by washing the cells three times with cold DPBS (containing 1.8 mM CaCl2). Then 400 μl RIPA buffer (50 mM Tris pH 7.4; 150 mM NaCl; 1% Triton X-100; 0.1% SDS; 1% sodium deoxycholate) was added to each well in order to lyse the cells. Plates were shaken slowly for 20 min; then 306 μL of cell lysate was transferred from each well into a scintillation vial and radioactivity was determined by scintillation counting. For each data point in each experiment, four wells were assayed. Data from these experiments were analyzed by computer fit to the Hill equation. At least 3 separate experiments were carried out for each compound. In order to determine antagonist activity, studies were performed in exactly the same fashion with the exception that 50 nM capsaicin was added to the assay mixture to stimulate ^45Ca^2+ uptake.

rat VR1 [2] = target: T1, rat VR1; assay: [3H]resiniferatoxin (RTX) competition binding assay, VR1-transfected CHO cells
Method: The pUHG102 VR1 plasmid was transfected into CHO cells containing the pTet Off regulatory plasmid (Clontech). In these cells, expression of the VR1 is repressed in the presence of tetracycline but is induced upon removal of the antibiotic. Stable clones were isolated in culture medium containing puromycin (10 μg/mL) and maintained in HAM F12 medium supplemented with tetracycline (1 μg/mL), 5 μg/ml geniticin, 25 mM HEPES, 10% FBS. Cells utilized for assays were grown in culture medium without antibiotic for 48 h before use. Cells were seeded in T75 cell culture flasks in media without antibiotics and grown to approximately 90% confluence. The flasks were then washed with PBS and harvested in 0.25% trypsin, 1 mM EDTA. The cells were pelleted by gentle centrifugation and stored at −20° C. until assay.
Competition Binding Assay
Binding studies with [^3H]resiniferatoxin (RTX) were carried out as described previously with minor modifications (Szallasi et al., 1992). Binding assay mixtures were set up on ice and contained 50-100 pM [^3H]RTX, various concentrations of competing ligands, 0.25 mg/mL BSA (Cohn fraction V), and about 5×10^5 VR1-transfected cells. The final volume was adjusted to 350 μL with DPBS with Ca^2+ and Mg^2+ and 0.25 mg/mL bovine serum albumin. Non-specific binding was determined in the presence of 100 nM nonradioactive RTX. The binding reaction was initiated by transferring the assay mixtures to a 37° C. water bath and was terminated after a 60 min incubation period by cooling the tubes on ice. To reduce non-specific binding, 200 μg/ml α-glycoprotein was added. Membrane-bound RTX was then separated from the free by pelleting the membranes in a Beckman 12 benchtop centrifuge (15 min, maximal velocity), the tips of the tubes containing the pellets were cut off, and the radioactivity was determined by scintillation counting. Equilibrium binding parameters (Ki and cooperativity) were determined by fitting the Hill equation to the measured values with the aid of the program MicroCal Origin 6.0.
as §1

[3] = competition with [3H]RTX, rat VR1 in CHO cells, read-out: Ki (nM) Binding Affinity

T1 sequence (O35433 whole entry): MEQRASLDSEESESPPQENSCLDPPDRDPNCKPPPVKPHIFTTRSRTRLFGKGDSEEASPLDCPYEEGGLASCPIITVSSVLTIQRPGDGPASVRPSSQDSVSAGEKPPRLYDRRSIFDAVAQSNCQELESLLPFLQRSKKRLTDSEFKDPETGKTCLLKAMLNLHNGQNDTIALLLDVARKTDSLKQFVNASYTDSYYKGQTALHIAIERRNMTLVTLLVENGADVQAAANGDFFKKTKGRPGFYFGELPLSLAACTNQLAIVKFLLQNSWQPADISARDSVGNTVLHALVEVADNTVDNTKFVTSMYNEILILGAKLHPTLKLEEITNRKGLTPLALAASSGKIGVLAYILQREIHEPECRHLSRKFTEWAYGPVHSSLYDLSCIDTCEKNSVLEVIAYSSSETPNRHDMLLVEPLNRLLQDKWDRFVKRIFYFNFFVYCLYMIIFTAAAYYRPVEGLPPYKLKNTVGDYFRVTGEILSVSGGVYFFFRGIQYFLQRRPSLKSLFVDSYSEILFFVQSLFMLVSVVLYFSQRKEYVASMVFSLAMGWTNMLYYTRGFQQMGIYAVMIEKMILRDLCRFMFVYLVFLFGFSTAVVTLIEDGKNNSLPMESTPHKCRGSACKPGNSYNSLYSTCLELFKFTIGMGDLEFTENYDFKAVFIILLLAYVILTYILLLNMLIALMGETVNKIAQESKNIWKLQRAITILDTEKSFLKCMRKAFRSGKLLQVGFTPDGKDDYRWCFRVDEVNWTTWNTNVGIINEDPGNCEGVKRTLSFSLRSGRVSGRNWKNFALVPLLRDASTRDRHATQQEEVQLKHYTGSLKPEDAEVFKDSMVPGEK

C[C@@H](NC(=S)NCC(COC(=O)C(C)(C)C)Cc1ccc(C(C)(C)C)cc1)c1ccc(NS(C)(=O)=O)cc1 (stereo partly drawn) [18-10, N-[2-(4-tert-Butylbenzyl)-3-(pivaloyloxy)propyl]-N′-{(1R)-1-[4-(methylsulfonylamino)phenyl]ethyl}thiourea]
Ki (rat VR1 [1]): 23.9 nM
melting point: 88 to 90 °C
Ki (rat VR1 [2]): 9.95 nM

CC(C)(C)c1ccc(CNC(=O)C(C)(C)c2ccc(NS(C)(=O)=O)cc2)cc1 [9-7, N-(4-tert-Butylbenzyl)-2-[4-(methylsulfonylamino)phenyl]-2-methylpropionamide]
Ki (rat VR1 [1]): 2550 nM
melting point: 141 to 143 °C
Ki (rat VR1 [2]): 425 nM

COC(=O)c1cc(C(C)C(=O)NCc2ccc(C(C)(C)C)cc2)ccc1NS(C)(=O)=O (stereo not drawn) [1-59, N-(4-tert-Butylbenzyl)-2-[3-(methoxycarbonyl)-4-(methylsulfonylamino)phenyl]propionamide]
Ki (rat VR1 [1]): 951 nM
melting point: 142 to 144 °C
Ki (rat VR1 [2]; [3]): 1610 nM

CC(C(=O)NCc1ccc(Cl)c(Cl)c1)c1ccc(NS(C)(=O)=O)c(F)c1 (stereo not drawn) [4-4, N-(3,4-Dichlorobenzyl)-2-[3-fluoro-4-(methylsulfonylamino)phenyl]propionamide]
Ki (rat VR1 [1]): 115 nM
melting point: 130 to 133 °C
Ki (rat VR1 [2]; [3]): 199 nM

CC(C(=O)NCc1ccc(C(C)(C)C)cc1)c1cc(F)c(NS(C)(=O)=O)c(F)c1 (stereo not drawn) [1-55, N-(4-tert-Butylbenzyl)-2-[3,5-difluoro-4-(methylsulfonylamino)phenyl]propionamide]
Ki (rat VR1 [1]): 7.38 nM
melting point: 80 to 81 °C
Ki (rat VR1 [2]; [3]): 19.9 nM

CC(C(=O)NCC=C1c2ccccc2CCc2ccccc21)c1ccc(NS(C)(=O)=O)c(F)c1 (stereo not drawn) [4-28, N-[2-(10,11-Dihydro-5H-dibenzo[a,d]cyclohepten-5-yliden)ethyl]-2-[3-fluoro-4-(methylsulfonylamino)phenyl]propionamide]
Ki (rat VR1 [1]): 121 nM
melting point: 67 to 69 °C
Ki (rat VR1 [2]; [3]): 141 nM

CC(C(=O)NCc1ccc(Cl)cc1)c1ccc(NS(C)(=O)=O)c(Cl)c1 (stereo not drawn) [4-2, N-(4-Chlorobenzyl)-2-[3-chloro-4-(methylsulfonylamino)phenyl]propionamide]
Ki (rat VR1 [1]): 447 nM
melting point: 134 to 135 °C
Ki (rat VR1 [2]): 729 nM

CC(NC(=S)NCc1ccc(C(C)(C)C)cc1)c1ccc(NS(C)(=O)=O)c(F)c1 (stereo not drawn) [15-2, N-(4-t-Butylbenzyl)-N′-{1-[3-fluoro-4-(methylsulfonylamino)phenyl]ethyl}thiourea]
Ki (rat VR1 [1]): 9.16 nM
melting point: 165 °C
Ki (rat VR1 [2]; [3]): 54 nM

C[C@H](C(=O)NC[C@@H](COC(=O)C(C)(C)C)Cc1ccc(C(C)(C)C)cc1)c1ccc(NS(C)(=O)=O)c(Cl)c1 [6-14, N-[(2S)-2-(4-t-Butylbenzyl)-3-(pivaloyloxy)propyl]-(2S)-2-[3-chloro-4-(methylsulfonylamino)phenyl]propionamide]
Ki (rat VR1 [1]): 12.1 nM
melting point: 55 to 57 °C
Ki (rat VR1 [2]; [3]): 3.29 nM

COc1cc(C2(C(=O)NCCCc3ccc(C)c(C)c3)CC2)ccc1NS(C)(=O)=O [12-6, N-[3-(3,4-Dimethylphenyl)propyl]-1-[3-methoxy-4-(methylsulfonylamino)phenyl]cyclopropanecarboxamide]
Ki (rat VR1 [1]): 1240 nM
melting point: 88 to 89 °C
Ki (rat VR1 [2]): 1700 nM

CC(C(=O)NCC(COC(=O)C(C)(C)C)Cc1ccc(C(C)(C)C)cc1)c1ccc(NS(C)(=O)=O)cc1 (stereo not drawn) [5-2, N-[2-(4-t-Butylbenzyl)-3-pivaloyloxypropyl]-2-[4-(methylsulfonylamino)phenyl]propionamide]
Ki (rat VR1 [1]): 52 nM
melting point: 97 to 100 °C
Ki (rat VR1 [2]; [3]): 55.2 nM

C[C@@H](NC(=S)NC[C@@H](COC(=O)C(C)(C)C)Cc1ccccc1)c1ccc(NS(C)(=O)=O)cc1 [18-2, N-[(2S)-2-Benzyl-3-(pivaloyloxy)propyl]-N′-{(1R)-1-[4-(methylsulfonylamino)phenyl]ethyl}thiourea]
Ki (rat VR1 [1]): 89 nM
melting point: 58 to 62 °C
Ki (rat VR1 [2]): 19.4 nM

Cc1ccc(CC(CNC(=O)C(C)c2ccc(NS(C)(=O)=O)cc2)COC(=O)C(C)(C)C)cc1C (stereo not drawn) [5-1, N-[2-(3,4-Dimethylbenzyl)-3-pivaloyloxypropyl]-2-[4-(methylsulfonylamino)phenyl]propionamide]
Ki (rat VR1 [1]): 38 nM
melting point: 112 to 115 °C
Ki (rat VR1 [2]; [3]): 119 nM

CC(C(=O)NCc1ccc(Cl)cc1)c1ccc(NS(C)(=O)=O)c(Br)c1 (stereo not drawn) [4-3, N-(4-Chlorobenzyl)-2-[3-bromo-4-(methylsulfonylamino)phenyl]propionamide]
Ki (rat VR1 [1]): 296 nM
melting point: 147 °C
Ki (rat VR1 [2]): 541 nM

C[C@H](C(=O)NC[C@@H](COC(=O)C(C)(C)C)Cc1ccc(C(C)(C)C)cc1)c1ccc(NS(C)(=O)=O)c(F)c1 [6-10, N-[(2S)-2-(4-t-Butylbenzyl)-3-(pivaloyloxy)propyl]-(2S)-2-[3-fluoro-4-(methylsulfonylamino)phenyl]propionamide]
Ki (rat VR1 [1]): 10.9 nM
melting point: 43 to 45 °C
Ki (rat VR1 [2]): 6.58 nM

Cc1ccc(CC(CNC(=S)NC(C)c2ccc(NS(C)(=O)=O)cc2)COC(=O)C(C)(C)C)cc1C (stereo not drawn) [18-5, N-[2-(3,4-Dimethylbenzyl)-3-(pivaloyloxy)propyl]-N′-{1-[4-(methylsulfonylamino)phenyl]ethyl}thiourea]
Ki (rat VR1 [1]): 25.9 nM
melting point: 77 °C
Ki (rat VR1 [2]): 37.2 nM

CC(NC(=O)C=Cc1ccc(Cl)cc1)c1ccc(NS(C)(=O)=O)c(F)c1 (stereo not drawn) [24-7, N-{1-[3-Fluoro-4-(methylsulfonylamino)phenyl]ethyl}-3-(4-chlorophenyl)-2-propenamide]
Ki (rat VR1 [1]): 938 nM
melting point: 219 to 221 °C
Ki (rat VR1 [2]): 773 nM

CC(C)(C)c1ccc(CNC(=S)NC(Cc2ccccc2)c2ccc(NS(C)(=O)=O)c(F)c2)cc1 (stereo not drawn) [20-15, N-(4-t-Butylbenzyl)-N′-{1-[4-(methylsulfonylamino)-3-fluorophenyl]-2-phenylethyl}thiourea]
Ki (rat VR1 [1]): 695 nM
melting point: 116 °C
Ki (rat VR1 [2]; [3]): 1740 nM

C[C@H](NC(=S)NC[C@H](COC(=O)C(C)(C)C)Cc1ccccc1)c1ccc(NS(C)(=O)=O)cc1 [18-3, N-[(2R)-2-Benzyl-3-(pivaloyloxy)propyl]-N′-{(1S)-1-[4-(methylsulfonylamino)phenyl]ethyl}thiourea]
Ki (rat VR1 [1]): 3470 nM
melting point: 58 to 62 °C
Ki (rat VR1 [2]): 1140 nM

C[C@H](C(=O)NC[C@H](COC(=O)C(C)(C)C)Cc1ccccc1)c1ccc(NS(C)(=O)=O)c(F)c1 [6-5, N-[(2R)-2-Benzyl-3-(pivaloyloxy)propyl]-(2S)-2-[3-fluoro-4-(methylsulfonylamino)phenyl]propionamide]
Ki (rat VR1 [1]): 8.55 nM
melting point: 40 to 42 °C
Ki (rat VR1 [2]; [3]): 43.4 nM

COc1cc(C(C)(C)NC(=S)NCc2ccc(C(C)(C)C)cc2)ccc1NS(C)(=O)=O [21-9, N-(4-t-Butylbenzyl)-N′-{1-methyl-1-[3-methoxy-4-(methylsulfonylamino)phenyl]ethyl}thiourea]
Ki (rat VR1 [1]): 663 nM
melting point: 148 to 150 °C
Ki (rat VR1 [2]; [3]): 2890 nM

CC(NC(=S)NCC(COC(=O)C(C)(C)C)Cc1ccc(C(C)(C)C)cc1)c1ccc(NS(C)(=O)=O)c(F)c1 (stereo not drawn) [18-14, N-[2-(4-tert-Butylbenzyl)-3-(pivaloyloxy)propyl]-N′-{1-[3-fluoro-4-(methylsulfonylamino)phenyl]ethyl}thiourea]
Ki (rat VR1 [1]): 9.34 nM
melting point: 78 °C
Ki (rat VR1 [2]): 37 nM
